Measurements published in paper doi:10.1101/466938v1, “The distinct biochemical property enables thymidylate kinase as a drug target and participates in pyrimidine drug sensitivity in Candida albicans” (biorxiv, 2018).
≈ marks a conversion by molar mass, not a printed value.

Assays:
[1] = tested on: T1, Candida albicans ATCC90028; assay: microbe, parasite or virus in culture; parameters: species or system Candida albicans strains; CLSI M27 broth microdilution, RPMI 1640, OD600 growth, MIC at 50% inhibition; conditions: ATCC90028, 24 h, read-out: 5-FUrd MIC (µg/mL)
T1 construct: ATCC 90028
Method: (§1) Minimum inhibitory concentrations (MICs) of 5-FUrd were determined by broth microdilution method in accordance with the guidelines in Clinical and Laboratory Standards Institute (CLSI) document M27[25], using RPMI 1640 medium containing 0.165 M MOPs (pH 7.0) and 0.2% glucose, an inoculum of 10^3 cells/well, and incubated for 24 hr at 35°C, followed by OD600 reading by TECAN SPARK plate reader. The MIC50 of 5-FUrd was determined as the lowest dosage of 5-FUrd causing 50% inhibition of the growth by using the concentrations in the range of 0.004-2μg/mL. MICs of […] of human use (5-FC; four azoles: posaconazole, voriconazole, itraconazole, fluconazole; and three echinocandins: anidulafungin, caspofungin and micafungin) were determined by the microdilution colorimetric Sensititre YeastOne SYO-09 panel (TREK Diagnostic Systems, Cleveland, OH, USA); in accordance with the manufacturer’s instructions. MICs values were determined visually, after 24 hours of incubation, as the lowest concentration of drug that caused complete inhibition (amphotericin B) or a significant diminution (≥50% inhibition; flucytosine, azoles and echinocandins) of growth relative to that of the growth control. Table 2. Minimum inhibitory concentrations of 5-FUrd and antifungal drugs of clinical used for pathogenic and drug-resistant isolates of Candida albicans^a We further tested the 5-FUrd sensitivity of a number of pathogenic C. albicans isolates from patients. […] Because 5-FC is intracellularly metabolized to 5-FU, we asked why the 5-FC-resistant isolates remained sensitive to 5-FUrd. Several mutations in 5-FC resistant strains were identified in the enzymes involved in the formation of 5-FUMP from 5-FC, including purine-cytosine permease (Fcy2), cytosine deaminase (Fca1) and uracil phosphoribosyltransferase (Fur1). These 5-FC-resistant but 5-FUrd-sensitive strains might have mutations in these genes. 5-FUrd is transported into C. albicans through uridine permease (Fui1) and is then phosphorylated to 5-FUMP by uridine kinase (Urk1). Presumably, activation of 5-FUrd metabolism by the Fui1 and Urk1 pathways can overcome the defects in genes mediating 5-FC activation, namely, Fcy2, Fca1 and Fur1, leading to toxicity, as depicted in Fig 6. One important effect of antifungal drugs is host liver toxicity.

[2] = tested on: T2, Candida albicans F2014a093; assay: microbe, parasite or virus in culture; parameters: species or system Candida albicans strains; CLSI M27 broth microdilution, RPMI 1640, OD600 growth, MIC at 50% inhibition; conditions: F2014A093, 24 h, read-out: 5-FUrd MIC (µg/mL)
T2 construct: F2014a093
Method: as §1

[3] = tested on: T3, Candida albicans F2014f090; assay: microbe, parasite or virus in culture; parameters: species or system Candida albicans strains; CLSI M27 broth microdilution, RPMI 1640, OD600 growth, MIC at 50% inhibition; conditions: F2014F090, 24 h, read-out: 5-FUrd MIC (µg/mL)
T3 construct: F2014f090
Method: as §1

[4] = tested on: T4, Candida albicans F2015b076; assay: microbe, parasite or virus in culture; parameters: species or system Candida albicans strains; CLSI M27 broth microdilution, RPMI 1640, OD600 growth, MIC at 50% inhibition; conditions: F2015B076, 24 h, read-out: 5-FUrd MIC (µg/mL)
T4 construct: F2015b076
Method: as §1

[5] = tested on: T5, Candida albicans F2015f019; assay: microbe, parasite or virus in culture; parameters: species or system Candida albicans strains; CLSI M27 broth microdilution, RPMI 1640, OD600 growth, MIC at 50% inhibition; conditions: F2015F019, 24 h, read-out: 5-FUrd MIC (µg/mL)
T5 construct: F2015f019
Method: as §1

[6] = tested on: T6, Candida albicans F2016a067; assay: microbe, parasite or virus in culture; parameters: species or system Candida albicans strains; CLSI M27 broth microdilution, RPMI 1640, OD600 growth, MIC at 50% inhibition; conditions: F2016A067, 24 h, read-out: 5-FUrd MIC (µg/mL)
T6 construct: F2016a067
Method: as §1

[7] = tested on: T7, Candida albicans F2016c087; assay: microbe, parasite or virus in culture; parameters: species or system Candida albicans strains; CLSI M27 broth microdilution, RPMI 1640, OD600 growth, MIC at 50% inhibition; conditions: F2016C087, 24 h, read-out: 5-FUrd MIC (µg/mL)
T7 construct: F2016c087
Method: as §1

[8] = tested on: T8, Candida albicans F2016e085; assay: microbe, parasite or virus in culture; parameters: species or system Candida albicans strains; CLSI M27 broth microdilution, RPMI 1640, OD600 growth, MIC at 50% inhibition; conditions: F2016E085, 24 h, read-out: 5-FUrd MIC (µg/mL)
T8 construct: F2016e085
Method: as §1

[9] = tested on: T9, Candida albicans F2016f024; assay: microbe, parasite or virus in culture; parameters: species or system Candida albicans strains; CLSI M27 broth microdilution, RPMI 1640, OD600 growth, MIC at 50% inhibition; conditions: F2016F024, 24 h, read-out: 5-FUrd MIC (µg/mL)
T9 construct: F2016f024
Method: as §1

[10] = tested on: T10, Candida albicans F2016g048; assay: microbe, parasite or virus in culture; parameters: species or system Candida albicans strains; CLSI M27 broth microdilution, RPMI 1640, OD600 growth, MIC at 50% inhibition; conditions: F2016G048, 24 h, read-out: 5-FUrd MIC (µg/mL)
T10 construct: F2016g048
Method: as §1

[11] = tested on: T11, Candida albicans F2017g023; assay: microbe, parasite or virus in culture; parameters: species or system Candida albicans strains; CLSI M27 broth microdilution, RPMI 1640, OD600 growth, MIC at 50% inhibition; conditions: F2017G023, 24 h, read-out: 5-FUrd MIC (µg/mL)
T11 construct: F2017g023
Method: as §1

Candida albicans SC5314 = tested on: T12, Candida albicans SC5314; assay: microbe, parasite or virus in culture; parameters: species or system Candida albicans strains; CLSI M27 broth microdilution, RPMI 1640, OD600 growth, MIC at 50% inhibition; conditions: SC5314, 24 h, read-out: 5-FUrd MIC (µg/mL)
T12 construct: SC5314
Method: as §1

hTMPK = molecular target: T13, hTMPK (Homo sapiens, UniProt P23919); assay: NADH-coupled assay (pyruvate kinase / lactate dehydrogenase); type: biochemical; conditions: 2 mM ATP, 100 mM Tris-HCl, 100 mM KCl, 10 mM MgCl2
T13 construct: gene DTYMK; pGEX-2T in E. coli BL21; N-terminal GST cut by thrombin
T13 sequence (P23919 1-212): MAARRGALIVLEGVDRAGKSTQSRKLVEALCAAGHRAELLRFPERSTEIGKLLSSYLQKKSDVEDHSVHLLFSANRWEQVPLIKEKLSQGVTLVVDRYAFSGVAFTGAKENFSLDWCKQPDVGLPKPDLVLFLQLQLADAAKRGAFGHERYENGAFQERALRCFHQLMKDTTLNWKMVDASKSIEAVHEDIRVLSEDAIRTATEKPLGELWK

CaTMPK = molecular target: T14, CaTMPK (Candida albicans, UniProt Q59TV7); assay: as above; type: biochemical; conditions: 2 mM ATP, 100 mM Tris-HCl, 100 mM KCl, 10 mM MgCl2
T14 construct: gene CAALFM_C111790WA; pGEX-2T in E. coli BL21; N-terminal GST cut by thrombin; CTG codon changed to TCG to keep native Ser68; synthetic gene GenScript #5001191-1
T14 sequence (Q59TV7 1-224 limits assumed): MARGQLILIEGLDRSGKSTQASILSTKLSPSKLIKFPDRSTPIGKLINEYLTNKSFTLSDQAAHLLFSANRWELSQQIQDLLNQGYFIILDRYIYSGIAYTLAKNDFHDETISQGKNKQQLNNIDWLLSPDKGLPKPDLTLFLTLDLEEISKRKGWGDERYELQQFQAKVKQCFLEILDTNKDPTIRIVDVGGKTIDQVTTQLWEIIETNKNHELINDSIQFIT

Row | SMILES | MIC [1] [µg/mL] | MIC [2] [µg/mL] | MIC [3] [µg/mL] | MIC [4] [µg/mL] | MIC [5] [µg/mL] | MIC [6] [µg/mL] | MIC [7] [µg/mL] | MIC [8] [µg/mL] | MIC [9] [µg/mL] | MIC [10] [µg/mL] | MIC [11] [µg/mL] | MIC (Candida albicans SC5314) [µg/mL] | Km (hTMPK) | Km (CaTMPK)
1 | O=c1[nH]c(=O)n([C@@H]2O[C@H](CO)[C@@H](O)[C@H]2O)cc1F [5-FUrd, 5-fluorouridine] | 0.03 ± 0.011 (≈ 0.114 µM) | 0.021 ± 0.001 (≈ 0.0801 µM) | 0.028 ± 0.002 (≈ 0.107 µM) | 0.026 ± 0.001 (≈ 0.0992 µM) | 0.036 ± 0.008 (≈ 0.137 µM) | 0.049 ± 0.001 (≈ 0.187 µM) | 0.021 ± 0.008 (≈ 0.0801 µM) | 0.076 ± 0.02 (≈ 0.29 µM) | 0.031 ± 0.003 (≈ 0.118 µM) | 0.063 ± 0.012 (≈ 0.24 µM) | 0.043 ± 0.001 (≈ 0.164 µM) | 0.044 ± 0.003 (≈ 0.168 µM) | – | –
2 | O=c1ccn([C@H]2C[C@H](O)[C@@H](COP(=O)(O)O)O2)c(=O)[nH]1 [dUMP] | – | – | – | – | – | – | – | – | – | – | – | – | Steady-state kinetics of CaTMPK and hTMPK using different dUMP concentrations | Steady-state kinetics of CaTMPK and hTMPK using different dUMP concentrations
